Values quoted from earlier work in paper PMC3922827 (Journal of the American Chemical Society, 2013).
Where two headings read alike, the source gives them in different places. No end group written: not given here. *: point of attachment. For = O=C*

Conditions: graded or all-or-none class

Substance	type of dye release from lipid vesicles (LUVs)	type of dye release from lipid vesicles
For-MAQKIISTIGKLVKWIIKTVNKFTKK [DL-1]	all-or-none	–
AGWLLGKINLKALAALAKKIL-NH2 [TP10W]	–	graded
